Laboratory results taken from ChEMBL document CHEMBL1201862, “PubChem BioAssay data set” (2004).
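Values below derive from 48-hour exposures of cells grown in 96-well plates, with endpoints linearly interpolated between the two concentrations bracketing the appropriate inhibition level. GI50 marks 50% less growth.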 Active and inactive are the calls of the source. Rule as the data show it: active = GI50 up to about 1.1 µM and inactive = higher.

What was measured:
Assay in all cases: NCI anticancer screen, dose series, 48 h
NCI-H522 = tested on: NCI-H522
MOLT-4 = tested on: MOLT-4
786-0 = tested on: 786-0
NCI-H23 = tested on: NCI-H23
HOP-92 = tested on: HOP-92
OVCAR-4 = tested on: OVCAR-4
NCI/ADR-RES = tested on: NCI/ADR-RES
SNB-75 = tested on: SNB-75
K562 = tested on: K562
CAKI-1 = tested on: CAKI-1
LOX IMVI = tested on: LOX IMVI
SNB-19 = tested on: SNB-19
TK-10 = tested on: TK-10
COLO 205 = tested on: COLO 205
HL-60 = tested on: HL-60
T47D = tested on: T47D
SR = tested on: SR
OVCAR-5 = tested on: OVCAR-5
SF-268 = tested on: SF-268
Hs-578T = tested on: Hs-578T

SMILES	GI50 (NCI-H522)	GI50 (MOLT-4)	GI50 (786-0)	GI50 (NCI-H23)	GI50 (HOP-92)	GI50 (OVCAR-4)	GI50 (NCI/ADR-RES)	GI50 (SNB-75)	GI50 (K562)	GI50 (CAKI-1)	GI50 (LOX IMVI)	GI50 (SNB-19)	GI50 (TK-10)	GI50 (COLO 205)	GI50 (HL-60)	GI50 (T47D)	GI50 (SR)	GI50 (OVCAR-5)	GI50 (SF-268)	GI50 (Hs-578T)
Nc1nc(Nc2ccccc2)c2[nH]cnc2n1	65.5 µM (inactive)	38.9 µM (inactive)	> 100 µM (inactive)	> 100 µM (inactive)	32.2 µM (inactive)	> 100 µM (inactive)	> 100 µM (inactive)	9.57 µM (inactive)	62.5 µM (inactive)	49.2 µM (inactive)	77.6 µM (inactive)	> 100 µM (inactive)	46.9 µM (inactive)	89.9 µM (inactive)	37.3 µM (inactive)	> 100 µM (inactive)	–	–	–	–
Cc1c(CCCl)c(Cl)n2c(nc3ccccc32)c1C#N	0.432 µM (active)	0.172 µM (active)	0.463 µM (active)	0.904 µM (active)	1.15 µM (inactive)	1.44 µM (inactive)	–	3.38 µM (inactive)	0.321 µM (active)	0.597 µM (active)	0.281 µM (active)	1.89 µM (inactive)	1.61 µM (inactive)	0.991 µM (active)	0.107 µM (active)	1.38 µM (inactive)	0.112 µM (active)	1.63 µM (inactive)	1.49 µM (inactive)	–
COc1cc(Br)c(/C=N/N=C(\N)NO)cc1OC	15.2 µM (inactive)	57.1 µM (inactive)	18.4 µM (inactive)	26 µM (inactive)	23.6 µM (inactive)	54.5 µM (inactive)	–	21.3 µM (inactive)	15.7 µM (inactive)	14.7 µM (inactive)	17.6 µM (inactive)	46.3 µM (inactive)	7.69 µM (inactive)	11 µM (inactive)	26.9 µM (inactive)	–	11.8 µM (inactive)	21.8 µM (inactive)	8.87 µM (inactive)	–
CN(C)CCNC(=O)c1cccc2c1Oc1c(cccc1[N+](=O)[O-])O2	0.975 µM (active)	0.298 µM (active)	0.564 µM (active)	1.44 µM (inactive)	–	5.04 µM (inactive)	–	1.24 µM (inactive)	1.45 µM (inactive)	0.297 µM (active)	0.908 µM (active)	–	1.69 µM (inactive)	1.87 µM (inactive)	0.306 µM (active)	0.323 µM (active)	0.462 µM (active)	2.18 µM (inactive)	2.97 µM (inactive)	1.94 µM (inactive)
O=C(O)CNc1ncc2c(n1)-c1ccccc1OC2	–	> 100 µM (inactive)	> 100 µM (inactive)	> 100 µM (inactive)	> 100 µM (inactive)	> 100 µM (inactive)	> 100 µM (inactive)	> 100 µM (inactive)	> 100 µM (inactive)	> 100 µM (inactive)	> 100 µM (inactive)	> 100 µM (inactive)	> 100 µM (inactive)	> 100 µM (inactive)	64.3 µM (inactive)	–	> 100 µM (inactive)	> 100 µM (inactive)	> 100 µM (inactive)	> 100 µM (inactive)
C=C1C(O)C23CCC4C(C(=O)O)(C(=O)O)CC(OC5OC(CO)C(O)C(OC(=O)CCc6ccccc6)C5NC(=O)CC(C)C)CC4(C)C2CCC1(O)C3 (configuration not stated)	> 100 µM (inactive)	> 100 µM (inactive)	> 100 µM (inactive)	> 100 µM (inactive)	> 100 µM (inactive)	> 100 µM (inactive)	–	> 100 µM (inactive)	> 100 µM (inactive)	> 100 µM (inactive)	> 100 µM (inactive)	> 100 µM (inactive)	> 100 µM (inactive)	> 100 µM (inactive)	> 100 µM (inactive)	> 100 µM (inactive)	> 100 µM (inactive)	> 100 µM (inactive)	> 100 µM (inactive)	> 100 µM (inactive)
[O-][S+]1CSCS1 (configuration not stated)	> 100 µM (inactive)	> 100 µM (inactive)	> 100 µM (inactive)	> 100 µM (inactive)	> 100 µM (inactive)	> 100 µM (inactive)	–	> 100 µM (inactive)	> 100 µM (inactive)	> 100 µM (inactive)	> 100 µM (inactive)	> 100 µM (inactive)	> 100 µM (inactive)	> 100 µM (inactive)	> 100 µM (inactive)	–	> 100 µM (inactive)	> 100 µM (inactive)	> 100 µM (inactive)	–
CC1=NN2C=Nc3c(c(-c4ccc(Cl)cc4)cn3-c3ccc(C)cc3)C2N1 (configuration not stated)	> 100 µM (inactive)	–	19.5 µM (inactive)	> 100 µM (inactive)	17.1 µM (inactive)	6.24 µM (inactive)	55.8 µM (inactive)	30.5 µM (inactive)	> 100 µM (inactive)	97.3 µM (inactive)	> 100 µM (inactive)	54.5 µM (inactive)	42.8 µM (inactive)	> 100 µM (inactive)	> 100 µM (inactive)	–	0.288 µM (active)	> 100 µM (inactive)	71.1 µM (inactive)	11.3 µM (inactive)
Cc1cc([N+](=O)[O-])c(S(=O)(=O)c2ccccc2)c([N+](=O)[O-])c1	1.73 µM (inactive)	3.39 µM (inactive)	3.95 µM (inactive)	8.53 µM (inactive)	2.43 µM (inactive)	7.83 µM (inactive)	–	22.5 µM (inactive)	4.08 µM (inactive)	3.62 µM (inactive)	2.57 µM (inactive)	18.5 µM (inactive)	17.9 µM (inactive)	9.51 µM (inactive)	2.82 µM (inactive)	–	4.59 µM (inactive)	18.6 µM (inactive)	13.2 µM (inactive)	–
O=C(c1ccc(Cl)cc1)c1ccc(OCCCOc2ccc(C(=O)c3ccc(Cl)cc3)cc2)cc1	> 100 µM (inactive)	> 100 µM (inactive)	> 100 µM (inactive)	> 100 µM (inactive)	78.9 µM (inactive)	> 100 µM (inactive)	–	33.6 µM (inactive)	> 100 µM (inactive)	> 100 µM (inactive)	> 100 µM (inactive)	> 100 µM (inactive)	> 100 µM (inactive)	> 100 µM (inactive)	> 100 µM (inactive)	–	> 100 µM (inactive)	> 100 µM (inactive)	> 100 µM (inactive)	–
C=C=C(C(=O)OC)[S+]([O-])c1ccc([N+](=O)[O-])cc1[N+](=O)[O-] (configuration not stated)	14.2 µM (inactive)	20.7 µM (inactive)	39.7 µM (inactive)	53.8 µM (inactive)	18.6 µM (inactive)	35.6 µM (inactive)	–	29 µM (inactive)	20 µM (inactive)	25.9 µM (inactive)	21.5 µM (inactive)	56 µM (inactive)	46 µM (inactive)	23.5 µM (inactive)	20.7 µM (inactive)	–	14.1 µM (inactive)	> 82.4 µM (inactive)	39 µM (inactive)	–
C[C@@H]1CC[C@@H](C)[C@](C)(CCc2ccoc2)C/C=C\C=C/1C(=O)O	–	31.8 µM (inactive)	> 50 µM (inactive)	32.1 µM (inactive)	> 50 µM (inactive)	> 50 µM (inactive)	> 50 µM (inactive)	> 50 µM (inactive)	> 50 µM (inactive)	> 50 µM (inactive)	> 50 µM (inactive)	> 50 µM (inactive)	> 50 µM (inactive)	> 50 µM (inactive)	15.3 µM (inactive)	–	> 50 µM (inactive)	> 50 µM (inactive)	–	> 50 µM (inactive)
O=C(O)/C=C\C(=O)c1ccc(Cl)cc1	> 100 µM (inactive)	24.7 µM (inactive)	28.9 µM (inactive)	31.8 µM (inactive)	24.5 µM (inactive)	29.6 µM (inactive)	–	44 µM (inactive)	31.1 µM (inactive)	24.7 µM (inactive)	24.9 µM (inactive)	> 63 µM (inactive)	40.5 µM (inactive)	19.6 µM (inactive)	23.5 µM (inactive)	–	24.3 µM (inactive)	> 100 µM (inactive)	29.4 µM (inactive)	–
Cc1ccc2nc3ccccc3c(C3C4C(=O)N(c5ccc(Br)cc5Cl)C(=O)C4ON3C(C(N)=O)c3ccccc3)c2c1 (configuration not stated)	13.6 µM (inactive)	8.73 µM (inactive)	20.8 µM (inactive)	0.321 µM (active)	> 25 µM (inactive)	19.7 µM (inactive)	–	> 25 µM (inactive)	> 25 µM (inactive)	4.9 µM (inactive)	22.8 µM (inactive)	> 25 µM (inactive)	> 25 µM (inactive)	> 25 µM (inactive)	> 25 µM (inactive)	> 25 µM (inactive)	7.26 µM (inactive)	> 25 µM (inactive)	> 25 µM (inactive)	> 25 µM (inactive)
Nc1ccc2nc(-c3cccc(C(F)(F)F)c3)cc(O)c2c1	61.8 µM (inactive)	40.4 µM (inactive)	44.7 µM (inactive)	54.6 µM (inactive)	> 100 µM (inactive)	–	92.9 µM (inactive)	27.3 µM (inactive)	–	29.6 µM (inactive)	51.9 µM (inactive)	46.1 µM (inactive)	58.2 µM (inactive)	27.2 µM (inactive)	–	–	25.1 µM (inactive)	43.2 µM (inactive)	–	28.9 µM (inactive)
CCOC(=O)c1cc(I)c(-c2cc(C)no2)n1C	33.4 µM (inactive)	21.2 µM (inactive)	43.5 µM (inactive)	44.1 µM (inactive)	36.4 µM (inactive)	21.8 µM (inactive)	36.2 µM (inactive)	49.8 µM (inactive)	26.8 µM (inactive)	20.3 µM (inactive)	37.3 µM (inactive)	> 100 µM (inactive)	> 100 µM (inactive)	42.4 µM (inactive)	26.1 µM (inactive)	32.2 µM (inactive)	–	93.3 µM (inactive)	60.1 µM (inactive)	–
